One series has as its system Rat liver microsome. Briefly: Liver microsomal stability assay, rat. In kind it is in vitro ADME. Set-up: key: A: the percentage of a compound remains is greater than that of its deuterium non-enriched counterpart; B: a result otherwise. The settings on record: 40 μM, 37° C., 30 min, 1 mg/ml microsome proteins; class relative to deuterium non-enriched counterpart. As for the experimental part:
A standard liver microsomal stability assay can be used to test or screen the compounds of this invention and to identify compounds with enhanced metabolic stability due to the enrichment of deuterium in the compounds. Liver microsome proteins prepared from different species such as mouse and rat were obtained from a commercial source (Research Institute for Liver Diseases, Shanghai, China). The assay was conducted in 1.5% potassium hydrogenphosphate (K2HPO4) in the presence of liver microsome proteins at 1 mg/ml and supplemented with an […] (3.3 mM NADPH, 3.3 mM glucose-6-phosphate, 6 units/ml G6PDase, and 3.3 mM magnesium chloride). Test compound was added into the assay mixture to a final concentration of 40 μM and incubated at 37° C. for 0 or 30 minutes. The reaction was stopped by the addition of 20 μM Bifonazole/CAN. Samples were then centrifuged at 14000 rpm for 10 minutes to precipitate proteins. Supernatant were then transferred to microcentrifuge tubes and subject to reverse phase HPLC analysis to determine the concentration of test compound.
The percentage of compounds that remained in the assay reactions after a thirty-minute incubation at 37° C. is calculated as the ratio between the amount of compound remained after a thirty-minute and that after a zero-minute incubation.

The next series deals with T1, PDGFRβ (Homo sapiens, UniProt P09619).
T1 construct: expressed in transfected cells; host or cells: CHO cells
Briefly: PDGFRβ cell-based assay (ELISA, phosphor-/total PDGFRβ in transfected CHO cells). Particulars: compound at 100 nM; CHO cells transfected with full length PDGFRβ; FBS stimulation; read-out: % PDGFRβ kinase activity remains. The text has this:
A standard cell-based assay for PDGFRβ kinase activity can be used to test or screen the compounds of this invention and to identify PDGFRβ antagonists. In this example, ELISA kits (R&D Systems, Inc., Minneapolis, Minn. 55413, USA) were used.
The activity of PDGFRβ in cells depended on its autophosphorylation level by various factors including growth factors. In order to induce the cell to produce PDGFRβ, full length of PDGFRβ sequence was cloned into PC-DNA3.1 vector, the plasmid was then transfected into CHO cells. After 48 hours, the expression of PDGFRβ in transfected CHO cells was confirmed by regular western blotting.
A compound to be tested was first dissolved in DMSO to a concentration of 10 mM and stored at −20° C. One day before the screening, CHO cells transfected with full length PDGFRβ plasmid were grown in DMEM medium without the presence of serum. On the day of screening procedure, the compounds with various concentration in DMSO (from 0.5 nM to 500 nM) were added into DMEM medium, two hours later, 20% of FBS (Fetal Bovine Serum) was added into the medium to stimulate the production of phosphor-PDGFRβ. Cell lysate from approximately 5×10^5 transfected CHO cells were reacted with anti-phosphor PDGFRβ or anti-total PDGFRβ antibody in 96 well plates, in the presence of detection antibody. The phosphor-PDGFRβ or total PDGFRβ were detected with Streptavidin-HRP (R&D Systems), followed by chemiluminescent detection. The level of PDGFRβ kinase activity was quantified as the ratio between the amount of phosphor- and that of total PDGFRβ proteins.
(In general: An ELISA detects its analyte on a solid surface through an enzyme-linked reagent.)

Series [1] is described as follows: Oral bioavailability study, Group 1 (mice). In kind it is in vivo, male ICR mice. The method, then: Oral pharmacokinetic studies were performed on Example 2. Specifically, this compound was dissolved in PEG-400 (2:1 mixture of PEG400 and 0.01N HCL (v/v)) and administered orally to male ICR mice at a dose of 50 mg/kg. Mice blood was obtained via eyeball enucleation at 0.25, 0.5, 1, 2, 3, 4, 6, 8, 12 and 24 hours after administration. The concentration of Example 2 in blood was determined using appropriate internal standards and reverse phase HPLC with UV detection.
Control blood samples were also used to identify compound-specific peaks. The oral bioavailability was determined by comparing the dose corrected areas under plasma-concentration time curve (AUC) to infinity for Example 2, given orally and intravenously in mice.

The next series concerns the target T2, VEGFR2 (Homo sapiens, UniProt P35968).
T2 construct: expressed in transfected cells; host or cells: CHO cells
The series is described as follows: VEGFR2 cell-based assay (ELISA, phosphor-/total VEGFR2 in transfected CHO cells). The settings on record: compound at 100 nM; CHO cells transfected with full length VEGFR2; FBS stimulation; read-out: % VEGFR2 kinase activity remains. The text has this:
A standard cell-based assay for VEGFR2 kinase activity can be used to test or screen the compounds of this invention and to identify VEGFR2 antagonists. In this example, ELISA kits (R&D Systems, Inc., Minneapolis, Minn. 55413, USA) were used.
The activity of VEGFR2 in cells depended on its autophosphorylation level by various factors including growth factors. In order to induce the cell to produce VEGFR2, full length of VEGFR2 sequence was cloned into PC-DNA3.1 vector, the plasmid was then transfected into CHO cells. After 48 hours, the expression of VEGFR2 in transfected CHO cells was confirmed by regular western blotting.
A compound to be tested was first dissolved in DMSO to a concentration of 10 mM and stored at −20° C. One day before the test, CHO cells transfected with full length VEGFR2 plasmid were grown in Dulbecco's Modified Eagle Medium (DMEM) without the presence of serum. On the day of the test, the compounds with various concentrations in DMSO (from 0.5 nM to 500 nM) were added into DMEM. Two hours later, 20% of FBS (Fetal Bovine Serum) was added into the medium to stimulate the production of phosphor-VEGFR2. Cell lysate from approximately 5×10^5 transfected CHO cells were reacted with anti-phosphor VEGFR2 or anti-total VEGFR2 antibody in 96-well plates, in the presence of detection antibody. The phosphor-VEGFR2 or total VEGFR2 were detected with Streptavidin-HRP(R&D Systems), followed by chemiluminescent detection. The level of VEGFR2 kinase activity was quantified as the ratio between the amount of phosphor- and that of total VEGFR2 proteins.

Structures can show the parent of a compound that is named as a salt.

T1 sequence (P09619 33-1106): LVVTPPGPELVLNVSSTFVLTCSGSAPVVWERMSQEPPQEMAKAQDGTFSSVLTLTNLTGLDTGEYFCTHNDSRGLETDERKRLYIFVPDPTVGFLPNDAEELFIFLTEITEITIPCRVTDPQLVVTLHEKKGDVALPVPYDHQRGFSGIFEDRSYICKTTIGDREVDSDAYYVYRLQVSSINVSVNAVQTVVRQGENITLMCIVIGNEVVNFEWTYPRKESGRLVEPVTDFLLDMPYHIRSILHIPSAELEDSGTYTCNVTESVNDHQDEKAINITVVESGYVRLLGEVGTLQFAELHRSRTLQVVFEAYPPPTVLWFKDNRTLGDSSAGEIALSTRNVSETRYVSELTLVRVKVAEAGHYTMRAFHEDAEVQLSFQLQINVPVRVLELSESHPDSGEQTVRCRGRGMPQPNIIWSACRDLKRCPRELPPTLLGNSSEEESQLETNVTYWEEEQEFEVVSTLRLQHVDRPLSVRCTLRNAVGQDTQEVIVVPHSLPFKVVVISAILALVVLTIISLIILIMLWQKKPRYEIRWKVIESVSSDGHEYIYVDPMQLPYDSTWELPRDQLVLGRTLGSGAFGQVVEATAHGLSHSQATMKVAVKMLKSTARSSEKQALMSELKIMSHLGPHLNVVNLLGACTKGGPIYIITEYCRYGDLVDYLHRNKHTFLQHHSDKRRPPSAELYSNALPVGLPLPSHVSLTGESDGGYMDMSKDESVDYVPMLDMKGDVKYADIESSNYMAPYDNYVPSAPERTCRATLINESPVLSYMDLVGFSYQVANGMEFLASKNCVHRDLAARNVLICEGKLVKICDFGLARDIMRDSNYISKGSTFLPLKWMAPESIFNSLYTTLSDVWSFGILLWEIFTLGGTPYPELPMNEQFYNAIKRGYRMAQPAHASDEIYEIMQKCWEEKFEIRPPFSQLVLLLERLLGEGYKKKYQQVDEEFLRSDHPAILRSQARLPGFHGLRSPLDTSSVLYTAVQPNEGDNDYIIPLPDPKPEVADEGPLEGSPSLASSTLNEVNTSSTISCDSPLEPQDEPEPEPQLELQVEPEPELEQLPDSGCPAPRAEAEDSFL
T2 sequence (P35968 20-1356): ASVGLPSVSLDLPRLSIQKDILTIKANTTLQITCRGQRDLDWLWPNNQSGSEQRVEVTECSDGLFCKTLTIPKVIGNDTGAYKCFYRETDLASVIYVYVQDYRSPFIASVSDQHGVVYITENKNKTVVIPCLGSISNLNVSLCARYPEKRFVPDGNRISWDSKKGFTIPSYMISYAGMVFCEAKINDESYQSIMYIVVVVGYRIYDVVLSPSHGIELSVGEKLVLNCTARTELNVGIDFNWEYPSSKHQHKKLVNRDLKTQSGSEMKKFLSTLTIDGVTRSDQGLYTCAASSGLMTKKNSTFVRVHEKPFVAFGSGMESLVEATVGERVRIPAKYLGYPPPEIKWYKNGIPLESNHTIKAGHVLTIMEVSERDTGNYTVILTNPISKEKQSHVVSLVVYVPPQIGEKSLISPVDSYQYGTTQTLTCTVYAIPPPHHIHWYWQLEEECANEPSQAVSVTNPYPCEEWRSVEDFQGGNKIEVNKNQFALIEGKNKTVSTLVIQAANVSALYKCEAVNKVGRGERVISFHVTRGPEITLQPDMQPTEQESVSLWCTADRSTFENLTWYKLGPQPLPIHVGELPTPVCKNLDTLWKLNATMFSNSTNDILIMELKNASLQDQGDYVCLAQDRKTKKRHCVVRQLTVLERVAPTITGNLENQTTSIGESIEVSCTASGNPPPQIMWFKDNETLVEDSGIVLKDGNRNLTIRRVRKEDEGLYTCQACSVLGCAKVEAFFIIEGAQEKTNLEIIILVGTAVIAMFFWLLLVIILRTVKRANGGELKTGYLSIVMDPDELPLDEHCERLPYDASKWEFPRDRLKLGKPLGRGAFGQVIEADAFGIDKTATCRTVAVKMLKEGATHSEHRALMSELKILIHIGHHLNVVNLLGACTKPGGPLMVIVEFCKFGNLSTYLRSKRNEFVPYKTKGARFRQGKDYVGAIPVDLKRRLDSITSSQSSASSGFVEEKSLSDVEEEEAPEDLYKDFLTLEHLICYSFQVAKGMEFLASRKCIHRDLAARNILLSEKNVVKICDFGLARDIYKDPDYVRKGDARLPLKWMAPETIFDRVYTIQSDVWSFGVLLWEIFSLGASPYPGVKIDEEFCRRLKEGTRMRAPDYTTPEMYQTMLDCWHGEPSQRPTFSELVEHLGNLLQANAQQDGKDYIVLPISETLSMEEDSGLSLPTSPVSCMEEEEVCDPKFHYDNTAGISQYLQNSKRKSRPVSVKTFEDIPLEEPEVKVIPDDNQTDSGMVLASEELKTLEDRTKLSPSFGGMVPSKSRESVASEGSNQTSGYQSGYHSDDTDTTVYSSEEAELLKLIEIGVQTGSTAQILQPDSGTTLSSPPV

As to `Cl.[2H]C([2H])(c1ccnc(N)c1)n1ccc2c(NC(=O)Nc3cc(Cl)ccc3OC)cccc21` [Example 2, 1-[1-[(2-amino-4-pyridyl)-dideuteriomethyl]indol-4-yl]-3-(5-chloro-2-methoxyphenyl)urea hydrochloride], in the series with Rat liver microsome, the “% of compound remained at the 30th minutes, Rat liver microsome” value (“% of compound remained” below) is given as “A”. Moreover, the remaining activity at 0.1 µM on PDGFRβ and on VEGFR2 was less than 70% each time. In addition, in series [1] (mice, 0.25 hour after 50 mg/kg oral dosing), the “amount detected in blood after oral dosing” value is reported as “substantial amounts”. The bioavailability (commonly the share of a dose that reaches the circulation, judged against a reference dose that is usually intravenous) in series [1] (mouse, plasma, male ICR mice, 50 mg/kg oral, AUC to infinity oral vs intravenous) is greater than 88%. Besides, the half-life (in general, the time needed for the level to fall by half in the phase considered) in series [1] (mouse, whole blood, male ICR mice, 50 mg/kg oral) fell in the range of 2.3 to 3.5 h.
On to `[2H]C([2H])([2H])Oc1ccc(Cl)cc1NC(=O)Nc1cccc2c1CCN2C([2H])([2H])c1ccnc(N)c1` [Example 3, 1-[1-[(2-Amino-4-pyridyl)-dideuteriomethyl]indolin-4-yl]-3-[5-chloro-2-(trideuteriomethoxy)phenyl]urea], for which the “% of compound remained” value with Rat liver microsome is “A”. Moreover, the remaining activity at 0.1 µM at PDGFRβ is no less than 70%; at VEGFR2, less than 70%.
Taken in the same sequence, the figures for `[2H]C([2H])([2H])Oc1ccc(Cl)cc1NC(=O)Nc1cccc2c1CCN2Cc1ccnc(N)c1` [Example 5, 1-[1-[(2-Amino-4-pyridyl)methyl]indolin-4-yl]-3-[5-chloro-2-(trideuteriomethoxy)phenyl]urea] were “A”, less than 70% and less than 70%.
For `[2H]C([2H])(c1ccnc2[nH]ccc12)N1CCc2c(NC(=O)Nc3cc(Cl)ccc3F)cccc21` [Example 11, 1-(5-Chloro-2-fluorophenyl)-3-[1-[dideuterio(1H-pyrrolo[2,3-b]pyridin-4-yl)methyl]indolin-4-yl]urea hydrochloride] the same measures were “B”, less than 70% and less than 70%.
For `[2H]C(c1c[nH]c2ncccc12)n1ccc2c(NC(=O)Nc3cc(Cl)ccc3F)cccc21` (stereo not drawn) [Example 20, 1-(5-chloro-2-fluorophenyl)-3-[1-[deuterio(1H-pyrrolo[2,3-b]pyridin-3-yl)methyl]indol-4-yl]urea] the same measures were “A”, less than 70% and less than 70%.
`Cl.[2H]C([2H])([2H])Oc1ccc(Cl)cc1NC(=O)Nc1cccc2c1CCN2C([2H])([2H])c1ccnc2[nH]ccc12` [Example 7, 1-[5-Chloro-2-(trideuteriomethoxy)phenyl]-3-[1-[dideuterio(1H-pyrrolo[2,3-b]pyridin-4-yl)methyl]indolin-4-yl]urea hydrochloride]: in the series on Rat liver microsome, the “% of compound remained” value is reported as “A”. For the same molecule, the remaining activity at 0.1 µM on PDGFRβ and on VEGFR2 was less than 70% in each case.
For the molecule `[2H]C(c1c[nH]c2ncccc12)N1CCc2c(NC(=O)Nc3cc(Cl)ccc3OC)cccc21` (stereo not drawn) [Example 17, 1-(5-Chloro-2-methoxyphenyl)-3-[1-[deuterio(1H-pyrrolo[2,3-b]pyridin-3-yl)methyl]indolin-4-yl]urea], the “% of compound remained” value in the series on Rat liver microsome is “A”. Moreover, the remaining activity at 0.1 µM on PDGFRβ and at VEGFR2 was less than 70% each time.

(Values after patent US20130165475A1, “DEUTERIUM-ENRICHED HETEROCYCLIC COMPOUNDS AS KINASE INHIBITORS” (ASCEPION PHARMACEUTICALS, INC., priority 2010, published 2013).)
